For 14 compounds, IC50 results are on record in patent publication US11739098B2 (BRISTOL-MYERS SQUIBB COMPANY, priority 2017, dated 2023).

Holding throughout (assay type): cell-based
In assay [1] the target is T1, human TLR9 (Homo sapiens, UniProt Q9NR96).
T1 construct: host or cells: HEK-Blue cells (HEK293-derived reporter line)
T1 sequence (Q9NR96 26-1032): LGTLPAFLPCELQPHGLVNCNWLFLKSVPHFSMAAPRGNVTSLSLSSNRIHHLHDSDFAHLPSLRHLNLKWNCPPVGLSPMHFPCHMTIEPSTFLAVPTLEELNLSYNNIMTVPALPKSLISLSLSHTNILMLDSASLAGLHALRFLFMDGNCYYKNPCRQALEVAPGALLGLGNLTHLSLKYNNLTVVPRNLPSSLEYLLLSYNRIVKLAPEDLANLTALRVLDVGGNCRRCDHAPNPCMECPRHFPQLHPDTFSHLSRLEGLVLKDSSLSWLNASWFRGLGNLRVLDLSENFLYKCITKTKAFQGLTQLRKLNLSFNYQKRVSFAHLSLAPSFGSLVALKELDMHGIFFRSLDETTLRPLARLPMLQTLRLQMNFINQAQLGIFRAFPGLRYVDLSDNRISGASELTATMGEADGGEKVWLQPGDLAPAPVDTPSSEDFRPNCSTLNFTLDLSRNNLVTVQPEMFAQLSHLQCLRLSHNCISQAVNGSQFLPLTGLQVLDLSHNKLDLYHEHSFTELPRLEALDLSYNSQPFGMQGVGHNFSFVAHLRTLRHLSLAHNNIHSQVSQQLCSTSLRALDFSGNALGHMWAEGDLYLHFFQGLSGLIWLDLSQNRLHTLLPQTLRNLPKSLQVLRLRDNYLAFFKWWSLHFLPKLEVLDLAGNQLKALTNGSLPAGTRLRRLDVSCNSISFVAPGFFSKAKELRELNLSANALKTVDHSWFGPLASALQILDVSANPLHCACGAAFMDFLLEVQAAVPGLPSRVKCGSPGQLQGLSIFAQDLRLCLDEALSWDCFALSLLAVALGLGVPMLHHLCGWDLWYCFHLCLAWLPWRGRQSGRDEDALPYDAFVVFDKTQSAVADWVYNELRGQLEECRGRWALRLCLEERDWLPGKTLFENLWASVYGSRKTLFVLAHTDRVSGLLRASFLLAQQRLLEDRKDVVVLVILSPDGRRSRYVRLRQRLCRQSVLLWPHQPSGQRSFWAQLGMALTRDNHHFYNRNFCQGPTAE
Description: TLR9 inhibition reporter assay (HEK-Blue cells, SEAP reporter, ODN2006 stimulation). The following applies: HEK-Blue cells overexpressing human TLR9, SEAP reporter, ODN2006 5 nM. The method in brief:
(§1)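 Percent inhibition of agonist-induced SEAP secretion in HEK-Blue cells after 22 h at 37 °C. Stimuli: 7.5 μM gardiquimod, 15.9 μM R848, 5 nM ODN2006 for TLR7, TLR8 and TLR9, added after 30 min compound exposure over a 0.05 nM–50 μM range.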

The target of assay [2] is T2, human TLR8 (Homo sapiens, UniProt Q9NR97).
T2 construct: host or cells: HEK-Blue cells (HEK293-derived reporter line)
T2 sequence (Q9NR97 27-1041): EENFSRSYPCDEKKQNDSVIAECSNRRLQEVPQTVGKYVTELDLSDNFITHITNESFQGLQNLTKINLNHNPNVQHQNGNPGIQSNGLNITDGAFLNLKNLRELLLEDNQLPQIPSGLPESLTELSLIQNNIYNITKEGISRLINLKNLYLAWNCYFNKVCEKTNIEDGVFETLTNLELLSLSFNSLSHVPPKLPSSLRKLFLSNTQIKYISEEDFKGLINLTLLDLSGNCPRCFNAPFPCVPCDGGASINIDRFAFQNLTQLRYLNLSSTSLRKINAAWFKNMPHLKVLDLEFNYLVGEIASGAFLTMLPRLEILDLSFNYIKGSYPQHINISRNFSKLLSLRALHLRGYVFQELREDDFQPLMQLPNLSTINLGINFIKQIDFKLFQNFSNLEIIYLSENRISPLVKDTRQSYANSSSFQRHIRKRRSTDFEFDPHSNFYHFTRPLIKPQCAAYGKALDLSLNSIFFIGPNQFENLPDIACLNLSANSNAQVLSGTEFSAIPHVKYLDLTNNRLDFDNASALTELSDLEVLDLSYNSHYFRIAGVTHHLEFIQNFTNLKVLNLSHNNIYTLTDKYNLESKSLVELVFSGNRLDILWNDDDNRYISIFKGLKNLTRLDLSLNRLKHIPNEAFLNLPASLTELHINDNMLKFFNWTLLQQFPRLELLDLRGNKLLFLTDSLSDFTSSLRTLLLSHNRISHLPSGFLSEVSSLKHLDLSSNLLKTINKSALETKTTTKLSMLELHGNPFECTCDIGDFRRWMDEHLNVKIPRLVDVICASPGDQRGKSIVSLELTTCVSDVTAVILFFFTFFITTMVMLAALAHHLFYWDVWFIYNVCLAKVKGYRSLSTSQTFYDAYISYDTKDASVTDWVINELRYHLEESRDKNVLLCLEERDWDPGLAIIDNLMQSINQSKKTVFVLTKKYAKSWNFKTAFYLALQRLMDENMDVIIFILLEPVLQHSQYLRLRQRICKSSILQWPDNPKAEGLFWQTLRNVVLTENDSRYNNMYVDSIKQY
The assay can be described thus: TLR8 inhibition reporter assay (HEK-Blue cells, SEAP reporter, R848 stimulation). The following applies: HEK-Blue cells overexpressing human TLR8, SEAP reporter, R848 15.9 μM. The procedure, abridged: as §1
Background: A reporter such as luciferase makes a cellular process visible.

The target of assay [3] is T3, human TLR7 (Homo sapiens, UniProt Q9NYK1).
T3 construct: host or cells: HEK-Blue cells (HEK293-derived reporter line)
T3 sequence (Q9NYK1 27-1049): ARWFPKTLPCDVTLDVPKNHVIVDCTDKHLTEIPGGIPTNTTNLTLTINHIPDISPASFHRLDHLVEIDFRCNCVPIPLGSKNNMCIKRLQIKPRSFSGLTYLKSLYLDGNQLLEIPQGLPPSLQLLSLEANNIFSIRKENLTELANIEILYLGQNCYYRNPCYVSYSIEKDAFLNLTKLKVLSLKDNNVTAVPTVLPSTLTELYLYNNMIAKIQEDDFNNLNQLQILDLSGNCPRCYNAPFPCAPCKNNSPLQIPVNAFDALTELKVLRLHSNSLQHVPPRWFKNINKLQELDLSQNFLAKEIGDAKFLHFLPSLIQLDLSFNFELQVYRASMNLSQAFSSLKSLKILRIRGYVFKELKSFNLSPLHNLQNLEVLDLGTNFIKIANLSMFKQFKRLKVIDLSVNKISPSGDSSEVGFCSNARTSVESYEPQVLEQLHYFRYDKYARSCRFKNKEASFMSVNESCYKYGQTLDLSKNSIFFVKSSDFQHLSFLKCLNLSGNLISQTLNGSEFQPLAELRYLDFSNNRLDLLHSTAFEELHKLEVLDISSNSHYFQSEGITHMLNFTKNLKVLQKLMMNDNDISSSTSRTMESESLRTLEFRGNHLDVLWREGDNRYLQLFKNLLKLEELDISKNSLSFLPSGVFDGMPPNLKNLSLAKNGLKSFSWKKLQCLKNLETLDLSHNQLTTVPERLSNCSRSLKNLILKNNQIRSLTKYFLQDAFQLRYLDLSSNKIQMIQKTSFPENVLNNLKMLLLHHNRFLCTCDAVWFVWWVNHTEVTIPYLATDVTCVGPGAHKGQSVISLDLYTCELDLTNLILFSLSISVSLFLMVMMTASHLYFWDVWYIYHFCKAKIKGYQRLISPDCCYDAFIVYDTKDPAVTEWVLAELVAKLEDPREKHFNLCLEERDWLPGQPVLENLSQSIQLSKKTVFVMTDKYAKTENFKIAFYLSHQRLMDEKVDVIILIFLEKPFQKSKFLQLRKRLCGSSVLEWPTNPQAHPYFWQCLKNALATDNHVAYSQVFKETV
Description: TLR7 inhibition reporter assay (HEK-Blue cells, SEAP reporter, gardiquimod stimulation). The following applies: HEK-Blue cells overexpressing human TLR7, SEAP reporter, gardiquimod 7.5 μM. The method in brief: as §1

Molecules are shown by their SMILES. Where only a bound is given, the exact number is not on record here.

One may read the IC50 as the point on the concentration scale where inhibition reaches its midpoint. For the compound `CNC(=O)CN1CCC(c2ccc3[nH]c(-c4ccn5nccc5c4)c(C(C)C)c3c2)CC1` [Example 405, 2-(4-(3-isopropyl-2-(pyrazolo[1,5-a]pyridin-5-yl)-1H-indol-5-yl)piperidin-1-yl)-N-methylacetamide], the IC50 in assay [1] is 1000 to 50000 nM; in assay [2] it was below 100 nM; in assay [3], below 100 nM.

Consider `CC(C)c1c(-c2ccc3ncsc3n2)[nH]c2ccc(C3CCNCC3)cc12` [Example 209, 5-(3-isopropyl-5-(piperidin-4-yl)-1H-indol-2-yl) thiazolo[5,4-b]pyridine], for which the concentration for half-maximal inhibition (IC50) in assay [1] is 1000 to 50000 nM; in assay [2], below 100 nM; in assay [3] it was below 100 nM.

For `Cc1cc2nnnn2cc1-c1[nH]c2ccc(C3CCN(C(=O)CN(C)C)CC3)cc2c1C(C)C` [Example 486, 2-(dimethylamino)-1-(4-(3-isopropyl-2-(7-methyltetrazolo[1,5-a]pyridin-6-yl)-1H-indol-5-yl)piperidin-1-yl)ethan-1-one], the concentration for half-maximal inhibition (IC50) was 1000 to 50000 nM in assay [1], 100 to 1000 nM in assay [2] and below 100 nM in assay [3].

As to `COc1cc(-c2[nH]c3ccc(C4CCN(CC(C)(C)O)CC4)cc3c2C(C)C)cc2nccn12` [Example 758, 1-(4-(3-isopropyl-2-(5-methoxyimidazo[1,2-a]pyridin-7-yl)-1H-indol-5-yl)piperidin-1-yl)-2-methylpropan-2-ol], the IC50 was 100 to 1000 nM in assay [1], below 100 nM in assay [2] and 100 to 1000 nM in assay [3].

As for `CC(C)c1c(-c2cc(N)c3nccn3c2)[nH]c2ccc(C3CCNCC3)cc12` [Example 117, 6-(3-isopropyl-5-(piperidin-4-yl)-1H-indol-2-yl)imidazo[1,2-a]pyridin-8-amine], the figures for the IC50 in assay [1], in assay [2] and in assay [3] were 100 to 1000 nM, below 100 nM and below 100 nM, respectively.

As to `Cc1cc(-c2[nH]c3ccc(C4CCNCC4)cc3c2C(C)C)cn2cc(C(=O)NC3CC3)nc12` [Example 262, N-cyclopropyl-6-(3-isopropyl-5-(piperidin-4-yl)-1H-indol-2-yl)-8-methylimidazo[1,2-a]pyridine-2-carboxamide], the IC50 in assay [1] was 100 to 1000 nM; in assay [2], below 100 nM; in assay [3], below 100 nM.

Regarding `CC(C)c1c(-c2cnc3ncccn23)[nH]c2ccc(C3CCN(CC(=O)N(C)C)CC3)cc12` [Example 290, 2-(4-(2-(imidazo[1,2-a]pyrimidin-3-yl)-3-isopropyl-1H-indol-5-yl)piperidin-1-yl)-N,N-dimethylacetamide], the IC50 in assay [1] was 1000 to 50000 nM; in assay [2], below 100 nM; in assay [3], 100 to 1000 nM.

For `CCc1c(-c2ccc3oc(=O)[nH]c3c2)[nH]c2ccc(C3CCNCC3)cc12` [Example 168, 5-(3-ethyl-5-(piperidin-4-yl)-1H-indol-2-yl)benzo[d]oxazol-2(3H)-one], the IC50 in assay [1], in assay [2] and in assay [3] was 100 to 1000 nM in each case.

Regarding `CC(C)c1c(-c2ccc3[nH]ccc3c2)[nH]c2ccc(C3CCNCC3)cc12` [Example 66, 3-isopropyl-5-(piperidin-4-yl)-1H,1′H-2,5′-biindole], the half-inhibitory concentration (IC50) in assay [1], in assay [2] and in assay [3] was 1000 to 50000 nM each time.

Consider `CCc1c(-c2ccnc3[nH]ncc23)[nH]c2ccc(C3CCN(Cc4nccs4)CC3)cc12` [Example 929, 2-((4-(3-ethyl-2-(1H-pyrazolo[3,4-b]pyridin-4-yl)-1H-indol-5-yl)piperidin-1-yl)methyl)thiazole], for which the half-inhibitory concentration (IC50) in assay [1] is 1000 to 50000 nM; in assay [2], below 100 nM; in assay [3], 100 to 1000 nM.

For the compound `COC(=O)c1c(-c2ccnc3[nH]ncc23)[nH]c2ccc(C3CCNCC3)cc12` [Example 174, methyl 5-(piperidin-4-yl)-2-(1H-pyrazolo[3,4-b]pyridin-4-yl)-1H-indole-3-carboxylate], the 50% inhibitory concentration (IC50) in assay [1] was 1000 to 50000 nM; in assay [2], 1000 to 50000 nM; in assay [3] it was above 50000 nM.

`Cc1cc2nc(-c3[nH]c4ccc(C5CCNCC5)cc4c3C(C)C)ccn2n1` [Example 149, 5-(3-isopropyl-5-(piperidin-4-yl)-1H-indol-2-yl)-2-methylpyrazolo[1,5-a]pyrimidine]: the figures for the IC50 in assay [1], in assay [2] and in assay [3] were 1000 to 50000 nM, 1000 to 50000 nM and 100 to 1000 nM, respectively.

For the compound `Cc1cc(-c2[nH]c3ccc(C4CCNCC4)cc3c2C(C)C)cc2ccnn12` [Example 143, 5-(3-isopropyl-5-(piperidin-4-yl)-1H-indol-2-yl)-7-methylpyrazolo[1,5-a]pyridine], the concentration for half-maximal inhibition (IC50) was 1000 to 50000 nM in assay [1], below 100 nM in assay [2] and below 100 nM in assay [3].

As to `COc1cc(-c2[nH]c3ccc(C4CCN(CC(=O)N(C)C)CC4)cc3c2C(C)C)cc2nccn12` [Example 357, 2-(4-(3-isopropyl-2-(5-methoxyimidazo[1,2-a]pyridin-7-yl)-1H-indol-5-yl)piperidin-1-yl)-N,N-dimethylacetamide], the IC50 in assay [1], in assay [2] and in assay [3] was 100 to 1000 nM throughout.
